For one compound, IC50 results are on record in ChEMBL document CHEMBL5725254, “Substituted annulated triazines and use thereof” (2016).

A word on the IC50: it is the concentration that inhibits the measured activity by half.

The target in this assay is cGMP-specific 3',5'-cyclic phosphodiesterase (Homo sapiens, UniProt O76074). Description: Inhibition Assay: To determine their in vitro action on human PDE 5, the test substances are dissolved in 100% DMSO and serially diluted. Typically, dilution series (1:3) from 200 uM to 0.091 uM are prepared (resulting final concentrations in the test: 4 uM to 0.0018 uM). In each case 2 ul of the diluted substance solutions are placed into the wells of microtitre plates (Isoplate-96/200W; Perkin Elmer). Subsequently, 50 ul of a dilution of the above-described PDE 5 preparation are added. The dilution of the PDE 5 preparation is chosen such that during the later incubation less than 70% of the substrate are converted (typical dilution: 1:100; dilution buffer: 50 mM Tris/hydrochloric acid pH 7.5, 8.3 mM magnesium chloride, 1.7 mM EDTA, 0.2% BSA). The substrate, [8-3H] cyclic guanosine-3',5'-monophosphate (1 uCi/ul; Perkin Elmer) is diluted 1:2000 with assay buffer (50 mM tris/hydrochloric acid pH 7.5, 8.3 mM magnesium chloride, 1.7 mM EDTA) to a concentration of 0.0005 uCi/ul. By addition of 50 ul (0.025 uCi) of the diluted substrate, the enzyme reaction is finally started. The test mixtures are incubated at room temperature for 60 min and the reaction is stopped by adding 25 ul of a suspension of 18 mg/ml yttrium scintillation proximity beads in water (phosphodiesterase beads for SPA assays, RPNQ 0150, Perkin Elmer). […].

For the compound `CC1(C)C(=O)Nc2nc(-c3nn(Cc4ccccc4F)c4ncc(F)cc34)nc(CNC(=O)C3CC3)c21`, the IC50 was 570 nM.
